Source: US20060063198A1, “Diagnostic marker” (priority 2004, published 2006)
No end group written: not given here. *: point of attachment. For = O=C*

Experiments:
[1] = system: human neutrophils; assay: Neutrophil chemotaxis in a modified Boyden chamber assay; format: cell-based; conditions: synthetic peptides, fMLP as comparator
Experimental: Serum and plasma samples were collected from six female healthy volunteers aged 20-29, and ten ACS patients. Clinical diagnosis of the ten ACS patients indicated one unstable angina patient and 9 patients with acute myocardial infarction (AMI). The unstable angina patient arrived to the Emergency Department 30.5 hours after symptoms onset. Seven of the nine AMI patients presented to the Emergency Department within 1.5-3.5 hours after onset of chest pain. The other two AMI patients arrived 10 hours and 24 hours after symptoms onset. Blood samples were collected upon arrival of the patient, centrifuged and stored at −70° C. for up to 21 days. Serum and plasma samples were tested for neutrophil chemotactic activity using a modified Boyden chamber technique and human neutrophils as indicator cells (see, for example, Elgebaly, S. A., et al. J. Mol. Cell. Cardiol. 21:585-593, 1989; and Elgebaly, S. A., et al. Am. J. Pathol. 137:1233-1241, 1990, each of which is incorporated by reference in its entirety).
Samples were also fractionated using high performance liquid chromatography (HPLC) and a size exclusion column (1-300 kDa). The 5 kDa and lower molecular weight fractions were collected and assayed for neutrophil chemotactic activity. The standard synthetic chemoattractant fMet-Leu-Phe (f-MLP) was used as the positive control for 100% chemotactic response. Hank's Balanced Salt Solution (HBSS) was the negative control for random migration. Neutrophil migration was reported as chemotactic index of counted cells trapped within 10-micron membrane layer. The average of three readings were calculated for each filter. [formula]
(§1) A synthetic peptide having the sequence: N-formyl-[…] Synthetic peptides of sequence: MIINHNLAAINSHR (i.e., unmodified peptide 3) and of sequence: […]

[2] = system: neutrophils; assay: Chemotactic activity retained after overnight refrigeration; format: cell-based; conditions: unlike fMLP
Description: as §1

In the case of N-formyl-MENHK [N-formyl-7], the chemotaxis of neutrophils [1] is reported as “promote chemotaxis to a lesser degree than fMLP”.
In the case of “N-formyl-MIINHNLAAINSHRSPGADGNGGEAMPGGGK (For-MIINHNLAAINSHRSPGADGNGGEAMPGGGK) [N-formyl-3+9+K]”, the chemotaxis of neutrophils [1] is reported as “promoted strong chemotaxis” and the “chemotactic activity when refrigerated overnight” value (“chemotactic activity” for short) [2] is reported as “retained chemotactic activity”.
For MIINHNLAAINSHR [sequence 3], the chemotaxis of neutrophils [1] was “promoted chemotaxis to a lesser degree”.
With “N-formyl-MNTRAMNDASGR (For-MNTRAMNDASGR) [N-formyl-5]” the chemotaxis of neutrophils [1] was “promote chemotaxis to a lesser degree than fMLP”.
MIINHNLAAINSHRSPGADGNGGEAMPGGG [3+9] was tested, and the chemotaxis of neutrophils [1] was “promoted chemotaxis to a lesser degree” and the “chemotactic activity” value [2] was “retained chemotactic activity”.
In the case of SPGADGNGGEAMPGGG [sequence 9], the chemotaxis of neutrophils [1] is reported as “no chemotactic activity”.
“N-formyl-MIINHNLAAINSHR (For-MIINHNLAAINSHR) [N-formyl-3]” was tested, and the chemotaxis of neutrophils [1] was “promoted strong chemotaxis” and the “chemotactic activity” value [2] was “retained chemotactic activity”.
